Measurements from patent US7868012B2, “Sulfamides as endothelin receptor antagonists for the treatment of cardiovascular diseases” (Actelion Pharmaceuticals, Ltd., priority 2004, dated 2011).

Legend:
[1] = target: T1, ETA receptors (rat aortic rings) (Rattus norvegicus, UniProt P26684); assay: Inhibition of endothelin-1-induced contraction of isolated rat aortic rings; format: cell-based; conditions: read-out: pA2 value Aorta (converted)
T1 construct: The thoracic aorta or trachea were excised, dissected and cut in 3-5 mm rings; from tissue; host or cells: thoracic aorta rings of adult Wistar rats, endothelium removed
T1 sequence (P26684 21-426): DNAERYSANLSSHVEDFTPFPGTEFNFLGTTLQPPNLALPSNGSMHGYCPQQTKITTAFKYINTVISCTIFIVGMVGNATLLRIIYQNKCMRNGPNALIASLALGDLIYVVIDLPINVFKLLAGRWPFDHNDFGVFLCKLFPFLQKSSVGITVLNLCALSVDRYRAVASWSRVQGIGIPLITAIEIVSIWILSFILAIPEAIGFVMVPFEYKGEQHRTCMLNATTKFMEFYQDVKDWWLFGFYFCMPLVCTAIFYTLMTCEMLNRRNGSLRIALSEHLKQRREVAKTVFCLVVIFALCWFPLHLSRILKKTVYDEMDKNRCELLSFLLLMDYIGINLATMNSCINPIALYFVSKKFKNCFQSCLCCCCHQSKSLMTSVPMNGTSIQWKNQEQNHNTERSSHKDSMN
Method: (§1) 2) Inhibition of Endothelin-Induced Contractions on Isolated Rat Aortic Rings (ETA Receptors) and Rat Tracheal Rings (ETB Receptors):
(§2) The functional inhibitory potency of the endothelin antagonists was assessed by their inhibition of the contraction induced by endothelin-1 on rat aortic rings (ETA receptors) and of the contraction induced by sarafotoxin S6c on rat tracheal rings (ETB receptors). Adult Wistar rats were anesthetized and exsanguinated. The thoracic aorta or trachea were excised, dissected and cut in 3-5 mm rings. The endothelium/epithelium was removed by gentle rubbing of the intimal surface. Each ring was suspended in a 10 mL isolated organ bath filled with Krebs-Henseleit solution (in mM; NaCl 115, KCl 4.7, MgSO4 1.2, KH2PO4 1.5, NaHCO3 25, CaCl2 2.5, glucose 10) kept at 37° C. and gassed with 95% O2 and 5% CO2. The rings were connected to force transducers and isometric tension was recorded (EMKA Technologies SA, Paris, France). The rings were stretched to a resting tension of 3 g (aorta) or 2 g (trachea). […] The functional inhibitory potency of the test compound was assessed by calculating the concentration ratio, i.e. the shift to the right of the EC50 induced by different concentrations of test compound. […]

[2] = target: T2, human recombinant ETA receptors (Homo sapiens, UniProt P25101); assay: Inhibition of [125I]ET-1 binding to membranes from CHO cells carrying human ETA receptors
T2 construct: expressed in transfected cells; host or cells: CHO cells (microsomal membranes)
T2 sequence (P25101 21-427): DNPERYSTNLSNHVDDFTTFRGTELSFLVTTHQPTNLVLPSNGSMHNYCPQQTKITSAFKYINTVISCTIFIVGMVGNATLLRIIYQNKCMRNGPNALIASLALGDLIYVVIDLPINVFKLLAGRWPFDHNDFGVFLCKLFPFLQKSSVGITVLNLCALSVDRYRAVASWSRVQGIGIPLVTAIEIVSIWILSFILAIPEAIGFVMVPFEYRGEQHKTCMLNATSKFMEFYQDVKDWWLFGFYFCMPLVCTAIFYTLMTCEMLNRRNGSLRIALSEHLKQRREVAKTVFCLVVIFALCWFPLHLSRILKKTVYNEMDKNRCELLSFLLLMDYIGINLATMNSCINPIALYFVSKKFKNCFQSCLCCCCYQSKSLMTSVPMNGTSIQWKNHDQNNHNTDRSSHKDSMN

[3] = target: T3, ETB receptors (rat tracheal rings) (Rattus norvegicus, UniProt P21451); assay: Inhibition of sarafotoxin S6c-induced contraction of isolated rat tracheal rings; format: cell-based; conditions: contraction induced by sarafotoxin S6c, 10 min incubation, read-out: pA2 value Trachea (converted)
T3 construct: The thoracic aorta or trachea were excised, dissected and cut in 3-5 mm rings; from tissue; host or cells: tracheal rings of adult Wistar rats, epithelium removed
T3 sequence (P21451 27-442): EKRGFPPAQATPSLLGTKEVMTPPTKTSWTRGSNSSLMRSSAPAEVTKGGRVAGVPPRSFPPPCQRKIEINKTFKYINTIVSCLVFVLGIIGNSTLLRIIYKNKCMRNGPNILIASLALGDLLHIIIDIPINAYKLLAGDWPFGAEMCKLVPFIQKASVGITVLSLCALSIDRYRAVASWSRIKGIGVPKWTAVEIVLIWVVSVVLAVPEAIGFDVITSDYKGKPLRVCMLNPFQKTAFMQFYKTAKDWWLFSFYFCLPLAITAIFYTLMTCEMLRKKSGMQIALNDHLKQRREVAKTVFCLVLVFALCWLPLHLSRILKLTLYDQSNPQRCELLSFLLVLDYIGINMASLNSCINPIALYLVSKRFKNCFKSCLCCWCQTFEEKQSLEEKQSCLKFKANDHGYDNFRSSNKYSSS
Method: as §1, §2

[4] = target: T4, human recombinant ETB receptors (Homo sapiens, UniProt P24530); assay: Inhibition of [125I]ET-1 binding to membranes from CHO cells carrying human ETB receptors; also: 2.5% DMSO
T4 construct: expressed in transfected cells; host or cells: CHO cells (microsomal membranes)
T4 sequence (P24530 27-442): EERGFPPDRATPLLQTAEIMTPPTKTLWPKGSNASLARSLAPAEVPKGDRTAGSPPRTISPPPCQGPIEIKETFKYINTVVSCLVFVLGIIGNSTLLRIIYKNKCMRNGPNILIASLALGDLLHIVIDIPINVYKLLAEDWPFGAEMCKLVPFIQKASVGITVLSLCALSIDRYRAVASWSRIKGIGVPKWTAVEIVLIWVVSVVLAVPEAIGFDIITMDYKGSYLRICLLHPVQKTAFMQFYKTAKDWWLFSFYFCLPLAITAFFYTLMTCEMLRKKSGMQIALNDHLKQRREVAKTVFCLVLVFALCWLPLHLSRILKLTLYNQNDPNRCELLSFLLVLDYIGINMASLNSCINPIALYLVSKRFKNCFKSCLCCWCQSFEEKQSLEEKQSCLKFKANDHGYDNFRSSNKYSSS
Method: 1) Inhibition of Endothelin Binding to Membranes from CHO Cells Carrying Human ET Receptors:
For competition binding studies, membranes of CHO cells expressing human recombinant ETA or ETB receptors were used. Microsomal membranes from recombinant CHO cells were prepared and the binding assay made as previously described (Breu V., et al, FEBS Lett 1993; 334:210).
The assay is performed in 200 uL 50 mM Tris/HCl buffer, pH 7.4, including 25 mM MnCl2, 1 mM EDTA and 0.5% (w/v) BSA in polypropylene microtiter plates. […]. […] After 2 h, the membranes were filtered on filterplates containing GF/C filters (Unifilterplates from Canberra Packard S. A. Zürich, Switzerland). To each well, 50 uL of scintillation cocktail is added (MicroScint 20, Canberra Packard S. A. Zürich, Switzerland) and the filter plates counted in a microplate counter (TopCount, Canberra Packard S. A. Zürich, Switzerland).
All the test compounds were dissolved, diluted and added in DMSO. […] […].

Row | SMILES | Kb [1] [nM] | IC50 [2] [nM] | Kb [3] [nM] | IC50 [4] [nM]
1 | O=C(O)CCNS(=O)(=O)Nc1ncnc(OCCOc2ncc(Br)cn2)c1-c1ccc(Br)cc1 [Example 2] | 6.31 | 0.656 | 794 | 330
2 | O=S(=O)(NCCCO)Nc1ncnc(OCCOc2ncc(Br)cn2)c1-c1ccc(Br)cc1 [Example 1, 1-hydroxypropanesulfamic acid[6-(2-(5-bromopyrimid-2-yloxy)-ethoxy)-5-(4-bromophenyl)-pyrimidin-4-yl]-amide] | 100 | 0.603 | 3160 | 322
